Counter-ions that a name gives are not always drawn. Like-named read-outs stand apart in the source and are kept apart here.
What was measured:
[1] = percutaneous permeability test using a Franz cell after electroporation, dorsal skin; type: in vitro ADME, hairless rat
Description: However, dorsal skin of a hairless rat was used as the skin sample. […] As the model labeled drugs, sodium dexamethasone phosphate (DEX.Na), ritodrine hydrochloride (RIT), dimemorfan phosphate (DIM), caffeine (CAF), azelastine hydrochloride (AZR), tipepidine hibenzate (TIP), benzoic acid (BA), phenytoin (PEN) and testosterone (TES) were used.

[2] = percutaneous permeability test using a Franz cell after electroporation, abdominal skin
Procedure: Calcein sodium salt was used as a model labeled drug at a concentration of 1 mM. The ingredients were stirred and solubilized to obtain the compositions for electroporation (solutions) of the present invention. The percutaneous absorption promotion actions of these compositions for electroporation were measured by percutaneous permeability test using a Franz cell. That is, a skin sample was collected from the abdomen of a hairless rat, and subcutaneous fat was removed from the sample. The skin sample was loaded in the Franz cell as a partition wall with its horny cell layer facing towards the donor side. The receiver side was filled with an isotonic phosphate-buffered saline (PBS). The donor side was filled with 3 mL of the aforementioned composition for electroporation of the present invention. The receiver side was stirred at 1200 rpm by using a star-head type stirrer. After the electroporation, 0.3 mL of the solution in the receiver side was serially collected in a time course and added with the same amount of isotonic phosphate-buffered saline (PBS) to examine the percutaneous permeability. […] The amount of calcein sodium salt was measured by a fluorometer. Further, as for the conditions of electroporation, ECM-830 produced by BTX was used, 10 pulses of 10 ms at 300 V was applied at intervals of 1 minute immediately after the drug administration, and then the power was turned off.
The same examination as in Example 1 was conducted by using various metal chlorides.
The same examination as in Example 1 was conducted by using trivalent metal ion chlorides. As for the electroporation conditions, 10 pulses of 10 ms at 300 V were applied at intervals of 1 second immediately after the drug administration. As the trivalent metal ion chlorides, iron chloride and aluminum chloride were used.
The same examination as in Example 1 was conducted by using FITC-dextran as a model labeled drug. As for the electroporation conditions, 10 pulses of 10 ms at 300 V were applied at intervals of 1 second immediately after the drug administration. As the FITC-dextran, FD4 (molecular weight: 4300), FD10 (molecular weight: 9600) and FD40 (molecular weight: 35600) were used.

Compound: CN1CCCC(n2nc(Cc3ccc(Cl)cc3)c3ccccc3c2=O)CC1 (stereo not drawn) [azelastine hydrochloride]
- percutaneous absorption of the model labeled drug on addition of calcium ions [1]: significantly promoted percutaneous absorption

Compound: iron chloride
- percutaneous absorption (calcein), trivalent metal ion chlorides vs calcium ions [2]: neither of the trivalent metal ions significantly promoted percutaneous absorption

Compound: CN1CCCC(=C(c2cccs2)c2cccs2)C1.O=C(O)c1ccccc1C(=O)c1ccc(O)cc1 [tipepidine hibenzate]
- percutaneous absorption of the model labeled drug on addition of calcium ions ([1]; Example 11, dorsal skin, addition of CaCl2, 10 pulses of 10 ms at 300 V at intervals of 1 second, FIG. 9): significantly promoted percutaneous absorption

Compound: [Cl][Al]([Cl])[Cl] [aluminum chloride]
- percutaneous absorption (calcein), trivalent metal ion chlorides vs calcium ions [2]: neither of the trivalent metal ions significantly promoted percutaneous absorption

Compound: [Ba+2].[Cl-].[Cl-] [barium chloride]
- absorption of calcein during electroporation ([2]; Example 9, various divalent metal chlorides added, FIG. 7): promoted the absorption of calcein

Compound: [Cl-].[K+] [potassium chloride]
- percutaneous absorption promotion action (buprenorphine hydrochloride) ([2]; Example 8, sample of Example 4 with metal chloride changed, all 150 mM, buprenorphine hydrochloride 0.02% by weight, FIGS. 5 and 6): promoted percutaneous absorption
